IC50 data for 16 compounds are collected here from US9453026B2, “ACC inhibitors and uses thereof” (Gilead Apollo, Inc., priority 2011, dated 2016).

Assay [1] has as its target ACC2 (Homo sapiens, UniProt O00763). In words: In vitro ACC2 inhibition assay (ADP-Glo). The format is biochemical. In a few lines:
(§1)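 Enzyme (human ACC1 or ACC2) and compound, serially diluted 1:3 over 11 points from a 600 uM DMSO stock, were preincubated 15 min before substrate addition.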
A general note: In ADP-Glo the light output rises with the ADP produced.

Assay [2] has as its target ACC1 (Homo sapiens, UniProt Q13085). In words: In vitro ACC1 inhibition assay (ADP-Glo). The format is biochemical. The gist of the method:
as §1

Like-named read-outs stand apart in the source and are kept apart here. A value given as a limit tells only on which side of the number the result lay.

Chain of ACC2 (O00763 whole entry, species assumed): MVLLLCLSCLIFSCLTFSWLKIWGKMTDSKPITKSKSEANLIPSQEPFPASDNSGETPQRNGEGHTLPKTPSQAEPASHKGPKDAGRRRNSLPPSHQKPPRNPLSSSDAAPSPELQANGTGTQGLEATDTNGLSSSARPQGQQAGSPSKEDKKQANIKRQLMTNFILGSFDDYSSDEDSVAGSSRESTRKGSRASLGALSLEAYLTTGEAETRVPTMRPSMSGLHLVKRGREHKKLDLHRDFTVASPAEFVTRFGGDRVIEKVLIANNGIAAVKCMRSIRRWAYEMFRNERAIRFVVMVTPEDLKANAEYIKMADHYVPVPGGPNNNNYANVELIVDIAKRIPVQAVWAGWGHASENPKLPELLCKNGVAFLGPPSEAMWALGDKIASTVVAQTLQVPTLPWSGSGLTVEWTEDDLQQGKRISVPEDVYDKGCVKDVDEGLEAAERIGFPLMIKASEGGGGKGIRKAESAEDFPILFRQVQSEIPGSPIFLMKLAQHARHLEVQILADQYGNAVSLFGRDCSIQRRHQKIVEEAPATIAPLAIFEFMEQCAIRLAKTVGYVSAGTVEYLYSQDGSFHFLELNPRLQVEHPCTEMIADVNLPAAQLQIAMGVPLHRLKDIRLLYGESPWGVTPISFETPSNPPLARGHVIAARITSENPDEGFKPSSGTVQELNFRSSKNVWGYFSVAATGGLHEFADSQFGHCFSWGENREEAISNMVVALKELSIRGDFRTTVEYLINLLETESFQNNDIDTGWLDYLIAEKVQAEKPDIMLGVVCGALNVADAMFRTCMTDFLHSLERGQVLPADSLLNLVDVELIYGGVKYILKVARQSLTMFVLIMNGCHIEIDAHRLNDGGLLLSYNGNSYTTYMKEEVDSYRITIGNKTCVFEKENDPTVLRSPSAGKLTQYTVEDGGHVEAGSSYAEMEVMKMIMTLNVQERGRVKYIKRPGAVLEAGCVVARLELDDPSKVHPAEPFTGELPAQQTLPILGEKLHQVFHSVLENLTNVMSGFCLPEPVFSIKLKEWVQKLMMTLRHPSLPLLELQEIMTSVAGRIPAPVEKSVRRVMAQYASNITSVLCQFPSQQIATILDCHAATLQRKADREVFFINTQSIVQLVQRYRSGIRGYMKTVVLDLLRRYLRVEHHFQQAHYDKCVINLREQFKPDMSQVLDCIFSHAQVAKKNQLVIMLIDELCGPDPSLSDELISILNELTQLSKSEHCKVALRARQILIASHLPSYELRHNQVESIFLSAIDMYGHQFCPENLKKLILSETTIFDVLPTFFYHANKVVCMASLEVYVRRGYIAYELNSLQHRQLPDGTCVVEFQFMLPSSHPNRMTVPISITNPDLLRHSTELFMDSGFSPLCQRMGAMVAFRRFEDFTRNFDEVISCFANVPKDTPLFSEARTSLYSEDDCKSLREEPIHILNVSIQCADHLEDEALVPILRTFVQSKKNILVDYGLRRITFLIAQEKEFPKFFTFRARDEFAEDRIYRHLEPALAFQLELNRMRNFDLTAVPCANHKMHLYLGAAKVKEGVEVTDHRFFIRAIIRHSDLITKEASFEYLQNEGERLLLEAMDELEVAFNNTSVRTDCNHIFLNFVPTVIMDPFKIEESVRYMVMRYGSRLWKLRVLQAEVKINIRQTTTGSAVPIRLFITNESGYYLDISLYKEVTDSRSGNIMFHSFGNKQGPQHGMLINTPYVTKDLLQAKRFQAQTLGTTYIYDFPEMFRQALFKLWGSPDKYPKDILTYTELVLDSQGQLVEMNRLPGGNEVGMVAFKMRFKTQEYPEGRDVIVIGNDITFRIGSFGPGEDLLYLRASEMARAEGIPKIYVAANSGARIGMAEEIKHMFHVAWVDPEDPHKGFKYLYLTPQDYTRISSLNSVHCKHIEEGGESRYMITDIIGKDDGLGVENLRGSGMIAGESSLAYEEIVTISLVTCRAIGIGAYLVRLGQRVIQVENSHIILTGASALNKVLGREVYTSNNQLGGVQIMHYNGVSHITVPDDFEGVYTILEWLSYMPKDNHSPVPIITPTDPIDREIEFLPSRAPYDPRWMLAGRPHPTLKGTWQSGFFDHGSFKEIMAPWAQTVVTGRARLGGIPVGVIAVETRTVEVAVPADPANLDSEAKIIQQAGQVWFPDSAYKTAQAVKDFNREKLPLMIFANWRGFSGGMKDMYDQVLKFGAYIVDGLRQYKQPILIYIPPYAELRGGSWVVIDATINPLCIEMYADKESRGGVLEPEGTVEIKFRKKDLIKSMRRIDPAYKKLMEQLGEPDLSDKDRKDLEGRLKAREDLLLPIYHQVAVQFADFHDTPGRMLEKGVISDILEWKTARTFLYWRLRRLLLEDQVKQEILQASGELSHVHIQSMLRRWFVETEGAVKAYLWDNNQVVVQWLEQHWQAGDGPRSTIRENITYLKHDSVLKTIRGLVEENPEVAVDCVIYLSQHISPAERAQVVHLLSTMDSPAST

As to `CCc1ccccc1[C@H](Cn1c(=O)n(C(C)(C)C(=O)O)c(=O)c2c(C)c(-c3ncco3)sc21)O[C@H]1CC[C@@H](O)CC1` [I-245, 2-(1-((R)-2-(2-ethylphenyl)-2-(((1s,4S)-4-hydroxycyclohexyl)oxy)ethyl)-5-methyl-6-(oxazol-2-yl)-2,4-dioxo-1,2-dihydrothieno[2,3-d]pyrimidin-3(4H)-yl)-2-methylpropanoic acid], the IC50 in assay [1] (read-out: ACC2) and in assay [2] (read-out: ACC1) was under 100 nM each time.

Consider `COc1ccccc1[C@H](Cn1c(=O)n(C(C)(C)C(=O)N2CCC2)c(=O)c2c(C)c(-c3ncco3)sc21)OC1CCOCC1` [I-247, 3-[1-(azetidin-1-yl)-2-methyl-1-oxopropan-2-yl]-1-[(2R)-2-(2-methoxyphenyl)-2-(oxan-4-yloxy)ethyl]-5-methyl-6-(1,3-oxazol-2-yl)-1H,2H,3H,4H-thieno[2,3-d]pyrimidine-2,4-dione], for which the IC50 in assay [1] (read-out: ACC2) and in assay [2] (read-out: ACC1) was under 100 nM throughout.

For the compound `CCc1ccccc1[C@H](Cn1c(=O)n(C(C)(C)C(=O)O)c(=O)c2c(C)c(-c3ncco3)sc21)OC1CCOCC1` [I-249, 2-[1-[(2R)-2-(2-ethylphenyl)-2-(oxan-4-yloxy)ethyl]-5-methyl-6-(1,3-oxazol-2-yl)-2,4-dioxo-1H,2H,3H,4H-thieno[2,3-d]pyrimidin-3-yl]-2-methylpropanoic acid], the IC50 in assay [1] (read-out: ACC2) and in assay [2] (read-out: ACC1) was under 100 nM in each case.

As for `COc1ccccc1[C@H](Cn1c(=O)n(C(C)(C)C(=O)O)c(=O)c2c(C)c(-c3ncco3)sc21)OCCO` [I-254, 2-[1-[(2R)-2-(2-hydroxyethoxy)-2-(2-methoxyphenyl)ethyl]-5-methyl-6-(1,3-oxazol-2-yl)-2,4-dioxo-1H,2H,3H,4H-thieno[2,3-d]pyrimidin-3-yl]-2-methylpropanoic acid], the IC50 in assay [1] (read-out: ACC2) and in assay [2] (read-out: ACC1) was under 100 nM each time.

For the compound `CCc1ccccc1[C@H](Cn1c(=O)n(C(C)(C)C(=O)O)c(=O)c2c(C)c(-c3ncco3)sc21)OCCO` [I-255, 2-[1-[(2R)-2-(2-ethylphenyl)-2-(2-hydroxyethoxy)ethyl]-5-methyl-6-(1,3-oxazol-2-yl)-2,4-dioxo-1H,2H,3H,4H-thieno[2,3-d]pyrimidin-3-yl]-2-methylpropanoic acid], the IC50 in assay [1] (read-out: ACC2) and in assay [2] (read-out: ACC1) was under 100 nM each time.

Turning to `CCOc1ccccc1[C@H](Cn1c(=O)n(C(C)(C)C(=O)O)c(=O)c2c(C)c(-c3ncco3)sc21)OCCO` [I-256, 2-[1-[(2R)-2-(2-ethoxyphenyl)-2-(2-hydroxyethoxy)ethyl]-5-methyl-6-(1,3-oxazol-2-yl)-2,4-dioxo-1H,2H,3H,4H-thieno[2,3-d]pyrimidin-3-yl]-2-methylpropanoic acid], the IC50 in assay [1] (read-out: ACC2) and in assay [2] (read-out: ACC1) was under 100 nM throughout.

Consider `COc1ccccc1[C@H](Cn1c(=O)n(C(C)(C)C(=O)O)c(=O)c2c(C)c(-c3ncco3)sc21)OC[C@@H](C)O` [I-258, 2-[1-[(2R)-2-[(2R)-2-hydroxypropoxy]-2-(2-methoxyphenyl)ethyl]-5-methyl-6-(1,3-oxazol-2-yl)-2,4-dioxo-1H,2H,3H,4H-thieno[2,3-d]pyrimidin-3-yl]-2-methylpropanoic acid], for which the IC50 in assay [1] (read-out: ACC2) and in assay [2] (read-out: ACC1) was under 100 nM in each case.

As for `COc1ccccc1[C@H](Cn1c(=O)n(C(C)(C)C(=O)O)c(=O)c2c(C)c(-c3ncco3)sc21)OCC1CCOCC1` [I-259, 2-[1-[(2R)-2-(2-methoxyphenyl)-2-(oxan-4-ylmethoxy)ethyl]-5-methyl-6-(1,3-oxazol-2-yl)-2,4-dioxo-1H,2H,3H,4H-thieno[2,3-d]pyrimidin-3-yl]-2-methylpropanoic acid], the IC50 in assay [1] (read-out: ACC2) and in assay [2] (read-out: ACC1) was under 100 nM in each case.

Consider `COc1ccccc1[C@H](Cn1c(=O)n(C(C)(C)C(N)=O)c(=O)c2c(C)c(-c3ncco3)sc21)OCC1CCOCC1` [I-260, 2-[1-[(2R)-2-(2-methoxyphenyl)-2-(oxan-4-ylmethoxy)ethyl]-5-methyl-6-(1,3-oxazol-2-yl)-2,4-dioxo-1H,2H,3H,4H-thieno[2,3-d]pyrimidin-3-yl]-2-methylpropanamide], for which the IC50 in assay [1] (read-out: ACC2) and in assay [2] (read-out: ACC1) was under 100 nM each time.

For the compound `Cc1c(-c2ncco2)sc2c1c(=O)n(C(C)(C)C(=O)O)c(=O)n2C[C@H](OC1CCOCC1)c1ccccc1OC(F)F` [I-264, 2-[1-[(2R)-2-[2-(difluoromethoxy)phenyl]-2-(oxan-4-yloxy)ethyl]-5-methyl-6-(1,3-oxazol-2-yl)-2,4-dioxo-1H,2H,3H,4H-thieno[2,3-d]pyrimidin-3-yl]-2-methylpropanoic acid], the IC50 in assay [1] (read-out: ACC2) and in assay [2] (read-out: ACC1) was under 100 nM throughout.

With `Cc1c(-c2ncco2)sc2c1c(=O)n(C(C)(C)C(=O)O)c(=O)n2C[C@H](OC(C)C)c1ccccc1OC(F)F` [I-267, 2-[1-[(2R)-2-[2-(difluoromethoxy)phenyl]-2-(propan-2-yloxy)ethyl]-5-methyl-6-(1,3-oxazol-2-yl)-2,4-dioxo-1H,2H,3H,4H-thieno[2,3-d]pyrimidin-3-yl]-2-methylpropanoic acid], the IC50 in assay [1] (read-out: ACC2) and in assay [2] (read-out: ACC1) was under 100 nM in each case.

Regarding `Cc1c(-c2ncco2)sc2c1c(=O)n(C(C)(C)C(N)=O)c(=O)n2C[C@H](OC(C)C)c1ccccc1OC(F)F` [I-268, 2-[1-[(2R)-2-[2-(difluoromethoxy)phenyl]-2-(propan-2-yloxy)ethyl]-5-methyl-6-(1,3-oxazol-2-yl)-2,4-dioxo-1H,2H,3H,4H-thieno[2,3-d]pyrimidin-3-yl]-2-methylpropanamide], the IC50 in assay [1] (read-out: ACC2) and in assay [2] (read-out: ACC1) was under 100 nM in each case.

As for `[2H]C([2H])([2H])Oc1ccccc1[C@H](Cn1c(=O)n(C(C)(C)C(=O)O)c(=O)c2c(C)c(-c3ncco3)sc21)OC1CCOCC1` [I-271, 2-[1-[(2R)-2-[2-(d3)methoxyphenyl]-2-(oxan-4-yloxy)ethyl]-5-methyl-6-(1,3-oxazol-2-yl)-2,4-dioxo-1H,2H,3H,4H-thieno[2,3-d]pyrimidin-3-yl]-2-methylpropanoic acid], the IC50 in assay [1] and in assay [2] was under 100 nM each time.

As to `Cc1c(-c2ncco2)sc2c1c(=O)n(C(C)(C)C(N)=O)c(=O)n2C[C@H](OC1CCOCC1)c1ccccc1OC(F)F` [I-274, 2-[1-[(2R)-2-[2-(difluoromethoxy)phenyl]-2-(oxan-4-yloxy)ethyl]-5-methyl-6-(1,3-oxazol-2-yl)-2,4-dioxo-1H,2H,3H,4H-thieno[2,3-d]pyrimidin-3-yl]-2-methylpropanamide], the IC50 in assay [1] (read-out: ACC2) and in assay [2] (read-out: ACC1) was under 100 nM in each case.

Consider `COc1ccccc1[C@H](Cn1c(=O)n(C(C)(C)C(=O)O)c(=O)c2c(C)c(-c3ncco3)sc21)O[C@H]1CC[C@H](O)CC1` [I-277, 2-[1-[(2R)-2-[(4-hydroxycyclohexyl)oxy]-2-(2-methoxyphenyl)ethyl]-5-methyl-6-(1,3-oxazol-2-yl)-2,4-dioxo-1H,2H,3H,4H-thieno[2,3-d]pyrimidin-3-yl]-2-methylpropanoic acid], for which the IC50 in assay [1] (read-out: ACC2) and in assay [2] (read-out: ACC1) was under 100 nM throughout.

As to `COc1ccccc1[C@H](Cn1c(=O)n(C(C)(C)C(N)=O)c(=O)c2c(C)c(-c3ncco3)sc21)O[C@H]1CC[C@@H](O)CC1` [I-279, 2-[1-[(2R)-2-[(4-hydroxycyclohexyl)oxy]-2-(2-methoxyphenyl)ethyl]-5-methyl-6-(1,3-oxazol-2-yl)-2,4-dioxo-1H,2H,3H,4H-thieno[2,3-d]pyrimidin-3-yl]-2-methylpropanamide], the IC50 in assay [1] (read-out: ACC2) and in assay [2] (read-out: ACC1) was under 100 nM in each case.
